The record followed here is publication PMC8550792, “Evolution of kinase polypharmacology across HSP90 drug discovery” (Cell Chemical Biology, 2021).

Holding throughout (test): biochemical
What all share (format): biochemical

The target in assay [1] is T1, 382 unique human kinases (Homo sapiens, UniProt P06213).
T1 construct: purchased Reaction Biology (HotSpot contract assay)
The note with it: kinase IR, compound 10 uM; for remaining activity at 10 µM: read-out: % Enzyme Activity (relative to DMSO controls).

Assay [2] has as its target T2, 382 unique human kinases (Homo sapiens, UniProt O14733).
T2 construct: purchased Reaction Biology (HotSpot contract assay)
T2 sequence (O14733 1-419): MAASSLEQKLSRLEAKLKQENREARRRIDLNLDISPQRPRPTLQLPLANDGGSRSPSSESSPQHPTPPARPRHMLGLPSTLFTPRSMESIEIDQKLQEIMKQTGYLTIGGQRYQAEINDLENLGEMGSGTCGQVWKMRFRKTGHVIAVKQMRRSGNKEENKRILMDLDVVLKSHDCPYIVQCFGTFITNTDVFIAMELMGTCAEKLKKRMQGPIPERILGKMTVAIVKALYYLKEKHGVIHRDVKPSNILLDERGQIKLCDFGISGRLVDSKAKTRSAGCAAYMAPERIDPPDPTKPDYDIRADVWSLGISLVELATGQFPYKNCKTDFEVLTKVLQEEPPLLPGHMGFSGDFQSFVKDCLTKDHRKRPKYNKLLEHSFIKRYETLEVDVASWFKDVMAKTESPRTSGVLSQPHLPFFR
Particulars: kinase MKK7, compound 10 uM; for remaining activity at 10 µM: read-out: % Enzyme Activity (relative to DMSO controls).

The target in assay [3] is T3, 382 unique human kinases (Homo sapiens, UniProt P20794).
T3 construct: purchased Reaction Biology (HotSpot contract assay)
T3 sequence (P20794 1-623): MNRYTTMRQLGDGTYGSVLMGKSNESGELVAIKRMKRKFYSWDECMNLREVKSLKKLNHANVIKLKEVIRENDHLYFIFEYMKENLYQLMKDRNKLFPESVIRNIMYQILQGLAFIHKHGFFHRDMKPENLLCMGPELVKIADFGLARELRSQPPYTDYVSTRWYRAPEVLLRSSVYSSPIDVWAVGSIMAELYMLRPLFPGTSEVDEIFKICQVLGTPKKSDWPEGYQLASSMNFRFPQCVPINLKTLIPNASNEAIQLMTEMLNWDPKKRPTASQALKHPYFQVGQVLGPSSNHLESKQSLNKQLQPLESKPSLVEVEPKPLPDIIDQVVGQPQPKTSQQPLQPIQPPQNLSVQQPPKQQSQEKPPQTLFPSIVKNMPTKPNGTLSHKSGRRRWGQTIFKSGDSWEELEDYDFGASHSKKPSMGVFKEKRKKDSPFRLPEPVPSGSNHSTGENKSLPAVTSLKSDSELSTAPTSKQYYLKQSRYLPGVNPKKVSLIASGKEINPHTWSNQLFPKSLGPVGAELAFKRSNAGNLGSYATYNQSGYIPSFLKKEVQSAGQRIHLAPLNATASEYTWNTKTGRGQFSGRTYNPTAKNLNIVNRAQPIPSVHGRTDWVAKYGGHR
The note with it: kinase MAK, compound 10 uM; for remaining activity at 10 µM: read-out: % Enzyme Activity (relative to DMSO controls).

The target in assay [4] is T4, 382 unique human kinases (Homo sapiens, UniProt P00533, G719C).
T4 construct: purchased Reaction Biology (HotSpot contract assay)
Particulars: kinase EGFR (G719C), compound 10 uM; for remaining activity at 10 µM: read-out: % Enzyme Activity (relative to DMSO controls).

In assay [5] the target is T5, 382 unique human kinases (Homo sapiens, UniProt Q86UX6).
T5 construct: purchased Reaction Biology (HotSpot contract assay)
Particulars: STK32C/YANK3, 10 uM; for remaining activity at 10 µM: read-out: % Enzyme Activity (relative to DMSO controls).

Assay [6] concerns the target T6, 382 unique human kinases (Homo sapiens, UniProt P54646).
T6 construct: purchased Reaction Biology (HotSpot contract assay)
Particulars: for remaining activity at 10 µM: read-out: % Enzyme Activity (relative to DMSO controls).

Assay [7] has as its target T7, 382 unique human kinases (Homo sapiens, UniProt P22607, K650E).
T7 construct: purchased Reaction Biology (HotSpot contract assay)
The note with it: FGFR3 (K650E), 10 uM; for remaining activity at 10 µM: read-out: % Enzyme Activity (relative to DMSO controls).

In assay [8] the target is T8, 382 unique human kinases (Homo sapiens, UniProt P51956).
T8 construct: purchased Reaction Biology (HotSpot contract assay)
T8 sequence (P51956 1-506): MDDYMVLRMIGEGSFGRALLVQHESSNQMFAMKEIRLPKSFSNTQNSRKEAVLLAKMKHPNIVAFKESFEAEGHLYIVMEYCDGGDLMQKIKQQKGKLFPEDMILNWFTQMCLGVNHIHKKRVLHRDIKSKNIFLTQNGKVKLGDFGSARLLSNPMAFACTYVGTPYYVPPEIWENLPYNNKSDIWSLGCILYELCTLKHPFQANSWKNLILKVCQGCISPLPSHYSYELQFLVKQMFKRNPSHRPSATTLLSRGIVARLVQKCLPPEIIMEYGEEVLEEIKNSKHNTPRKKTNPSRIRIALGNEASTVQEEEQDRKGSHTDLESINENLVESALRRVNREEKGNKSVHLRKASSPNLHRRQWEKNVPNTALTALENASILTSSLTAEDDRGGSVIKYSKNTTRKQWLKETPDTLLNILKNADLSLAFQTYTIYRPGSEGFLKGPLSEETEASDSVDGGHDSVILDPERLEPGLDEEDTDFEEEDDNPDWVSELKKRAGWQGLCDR
Particulars: NEK3, 10 uM; for remaining activity at 10 µM: read-out: % Enzyme Activity (relative to DMSO controls).

For assay [9], the target named is T9, 382 unique human kinases (Homo sapiens, UniProt O95819).
T9 construct: purchased Reaction Biology (HotSpot contract assay)
Particulars: HGK/MAP4K4, 10 uM; for remaining activity at 10 µM: read-out: % Enzyme Activity (relative to DMSO controls).

The target of assay [10] is T10, 382 unique human kinases (Homo sapiens, UniProt Q08345).
T10 construct: purchased Reaction Biology (HotSpot contract assay)
The note with it: DDR1, [ATP] 100 µM.

In assay [11] the target is T11, 382 unique human kinases (Homo sapiens, UniProt Q9HC98).
T11 construct: purchased Reaction Biology (HotSpot contract assay)
The note with it: NEK6, 10 uM; for remaining activity at 10 µM: read-out: % Enzyme Activity (relative to DMSO controls).

[12] abbreviates: kinase AMPK(A2/B1/G1), compound 10 uM.
[13] abbreviates: kinase AMPK(A2/B2/G1), compound 10 uM.
Setting [14] is: kinase AMPK(A2/B2/G2), compound 10 uM.
Where [15] appears, read: compound 10 uM, read-out: % Enzyme Activity (relative to DMSO controls).

Like-named read-outs stand apart in the source and are kept apart here.

T5 sequence (Q86UX6 whole entry): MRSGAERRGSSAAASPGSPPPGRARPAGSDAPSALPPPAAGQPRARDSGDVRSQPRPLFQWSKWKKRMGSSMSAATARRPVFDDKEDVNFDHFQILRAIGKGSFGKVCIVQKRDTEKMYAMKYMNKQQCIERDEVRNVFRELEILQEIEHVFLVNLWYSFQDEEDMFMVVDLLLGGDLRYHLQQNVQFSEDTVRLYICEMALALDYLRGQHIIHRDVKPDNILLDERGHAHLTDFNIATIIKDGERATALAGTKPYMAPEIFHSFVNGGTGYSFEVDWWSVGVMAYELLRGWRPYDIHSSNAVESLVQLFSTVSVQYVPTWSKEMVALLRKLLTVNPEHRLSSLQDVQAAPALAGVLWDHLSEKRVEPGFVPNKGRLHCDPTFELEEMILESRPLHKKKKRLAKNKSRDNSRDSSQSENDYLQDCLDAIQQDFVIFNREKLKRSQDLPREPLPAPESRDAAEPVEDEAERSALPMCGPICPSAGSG
T11 sequence (Q9HC98 whole entry): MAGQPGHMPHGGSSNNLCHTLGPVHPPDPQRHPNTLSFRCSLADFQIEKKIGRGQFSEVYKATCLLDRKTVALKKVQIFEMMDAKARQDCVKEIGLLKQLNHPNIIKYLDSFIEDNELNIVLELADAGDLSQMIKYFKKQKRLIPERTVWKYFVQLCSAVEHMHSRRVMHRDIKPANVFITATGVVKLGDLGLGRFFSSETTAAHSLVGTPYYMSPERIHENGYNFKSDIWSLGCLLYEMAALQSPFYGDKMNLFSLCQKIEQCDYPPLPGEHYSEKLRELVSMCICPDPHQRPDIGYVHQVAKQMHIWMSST
T10 sequence (Q08345 19-913): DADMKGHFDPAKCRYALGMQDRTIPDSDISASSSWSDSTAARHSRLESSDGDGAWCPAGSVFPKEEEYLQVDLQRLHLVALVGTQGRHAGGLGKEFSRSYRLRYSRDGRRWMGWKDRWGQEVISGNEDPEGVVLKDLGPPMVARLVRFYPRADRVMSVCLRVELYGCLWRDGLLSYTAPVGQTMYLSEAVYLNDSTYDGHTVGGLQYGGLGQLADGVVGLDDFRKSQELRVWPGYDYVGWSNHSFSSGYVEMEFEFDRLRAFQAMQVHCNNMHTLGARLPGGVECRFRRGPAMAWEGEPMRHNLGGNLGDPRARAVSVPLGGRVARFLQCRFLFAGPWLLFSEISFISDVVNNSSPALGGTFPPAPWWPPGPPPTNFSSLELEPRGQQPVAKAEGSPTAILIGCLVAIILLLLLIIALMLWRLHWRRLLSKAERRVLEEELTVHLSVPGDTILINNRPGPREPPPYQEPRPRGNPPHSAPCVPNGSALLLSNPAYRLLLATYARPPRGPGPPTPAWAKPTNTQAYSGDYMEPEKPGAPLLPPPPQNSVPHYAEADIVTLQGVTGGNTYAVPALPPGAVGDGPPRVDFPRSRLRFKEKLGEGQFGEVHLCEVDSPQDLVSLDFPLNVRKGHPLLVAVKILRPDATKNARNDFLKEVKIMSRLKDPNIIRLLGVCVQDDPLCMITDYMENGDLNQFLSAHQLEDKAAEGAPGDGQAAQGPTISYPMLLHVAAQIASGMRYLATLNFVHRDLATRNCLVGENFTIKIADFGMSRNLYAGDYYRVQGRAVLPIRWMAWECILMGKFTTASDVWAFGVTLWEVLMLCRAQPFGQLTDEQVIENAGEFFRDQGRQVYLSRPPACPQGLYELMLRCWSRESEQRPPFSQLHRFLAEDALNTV
T7 sequence (P22607 23-806 K650E): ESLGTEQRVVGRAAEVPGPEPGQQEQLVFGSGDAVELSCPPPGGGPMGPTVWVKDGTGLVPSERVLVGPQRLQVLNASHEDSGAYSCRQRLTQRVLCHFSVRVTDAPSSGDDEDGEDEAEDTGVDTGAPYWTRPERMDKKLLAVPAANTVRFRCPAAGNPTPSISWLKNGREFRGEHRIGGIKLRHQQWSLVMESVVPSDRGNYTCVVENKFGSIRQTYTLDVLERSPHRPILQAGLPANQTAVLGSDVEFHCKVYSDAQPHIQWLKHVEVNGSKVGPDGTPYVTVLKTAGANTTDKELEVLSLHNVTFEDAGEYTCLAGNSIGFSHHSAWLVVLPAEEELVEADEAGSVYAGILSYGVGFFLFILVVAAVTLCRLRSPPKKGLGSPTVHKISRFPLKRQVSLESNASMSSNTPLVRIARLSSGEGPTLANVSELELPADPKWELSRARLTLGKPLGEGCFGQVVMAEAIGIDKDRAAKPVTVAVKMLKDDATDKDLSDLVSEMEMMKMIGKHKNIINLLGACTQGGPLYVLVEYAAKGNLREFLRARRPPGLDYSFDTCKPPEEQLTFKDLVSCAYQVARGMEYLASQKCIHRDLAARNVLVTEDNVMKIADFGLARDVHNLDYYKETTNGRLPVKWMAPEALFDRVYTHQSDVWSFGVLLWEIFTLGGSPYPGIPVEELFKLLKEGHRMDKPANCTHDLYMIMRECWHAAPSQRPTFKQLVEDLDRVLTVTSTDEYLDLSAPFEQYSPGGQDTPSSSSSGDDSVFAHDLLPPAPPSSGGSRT
T1 sequence (P06213 28-1382): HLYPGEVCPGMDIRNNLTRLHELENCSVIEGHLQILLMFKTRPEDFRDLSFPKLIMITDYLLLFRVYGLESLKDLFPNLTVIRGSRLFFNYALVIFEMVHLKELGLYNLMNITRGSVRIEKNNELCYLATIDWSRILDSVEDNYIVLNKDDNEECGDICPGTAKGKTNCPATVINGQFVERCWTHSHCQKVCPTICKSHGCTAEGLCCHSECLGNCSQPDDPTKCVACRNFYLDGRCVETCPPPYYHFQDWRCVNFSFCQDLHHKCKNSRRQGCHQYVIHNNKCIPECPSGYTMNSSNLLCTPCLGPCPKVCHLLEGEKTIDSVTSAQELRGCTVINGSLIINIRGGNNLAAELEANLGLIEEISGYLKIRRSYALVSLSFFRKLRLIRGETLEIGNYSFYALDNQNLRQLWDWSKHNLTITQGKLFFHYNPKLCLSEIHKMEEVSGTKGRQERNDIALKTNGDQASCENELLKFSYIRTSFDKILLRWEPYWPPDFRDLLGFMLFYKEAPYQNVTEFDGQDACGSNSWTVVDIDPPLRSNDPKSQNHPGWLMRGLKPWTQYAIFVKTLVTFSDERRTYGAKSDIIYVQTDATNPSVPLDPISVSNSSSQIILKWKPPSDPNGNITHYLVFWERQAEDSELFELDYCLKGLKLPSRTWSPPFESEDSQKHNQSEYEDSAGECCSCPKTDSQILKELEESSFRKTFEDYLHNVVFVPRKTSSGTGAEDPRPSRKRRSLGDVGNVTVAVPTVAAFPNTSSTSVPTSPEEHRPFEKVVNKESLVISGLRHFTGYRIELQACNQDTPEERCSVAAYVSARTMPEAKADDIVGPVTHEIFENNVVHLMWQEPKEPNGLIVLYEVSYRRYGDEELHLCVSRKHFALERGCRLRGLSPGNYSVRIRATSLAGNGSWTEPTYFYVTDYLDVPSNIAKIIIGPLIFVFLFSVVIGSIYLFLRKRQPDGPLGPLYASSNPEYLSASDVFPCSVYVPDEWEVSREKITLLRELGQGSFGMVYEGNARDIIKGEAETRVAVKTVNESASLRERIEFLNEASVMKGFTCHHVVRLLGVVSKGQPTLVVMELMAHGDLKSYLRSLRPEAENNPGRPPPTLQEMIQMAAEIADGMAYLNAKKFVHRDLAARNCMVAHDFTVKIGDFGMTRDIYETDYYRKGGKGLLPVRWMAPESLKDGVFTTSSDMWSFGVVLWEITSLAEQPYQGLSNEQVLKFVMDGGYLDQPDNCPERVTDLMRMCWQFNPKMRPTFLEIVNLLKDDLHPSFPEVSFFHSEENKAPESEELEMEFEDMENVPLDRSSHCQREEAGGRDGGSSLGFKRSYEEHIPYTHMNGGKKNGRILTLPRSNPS
T6 sequence (P54646 whole entry): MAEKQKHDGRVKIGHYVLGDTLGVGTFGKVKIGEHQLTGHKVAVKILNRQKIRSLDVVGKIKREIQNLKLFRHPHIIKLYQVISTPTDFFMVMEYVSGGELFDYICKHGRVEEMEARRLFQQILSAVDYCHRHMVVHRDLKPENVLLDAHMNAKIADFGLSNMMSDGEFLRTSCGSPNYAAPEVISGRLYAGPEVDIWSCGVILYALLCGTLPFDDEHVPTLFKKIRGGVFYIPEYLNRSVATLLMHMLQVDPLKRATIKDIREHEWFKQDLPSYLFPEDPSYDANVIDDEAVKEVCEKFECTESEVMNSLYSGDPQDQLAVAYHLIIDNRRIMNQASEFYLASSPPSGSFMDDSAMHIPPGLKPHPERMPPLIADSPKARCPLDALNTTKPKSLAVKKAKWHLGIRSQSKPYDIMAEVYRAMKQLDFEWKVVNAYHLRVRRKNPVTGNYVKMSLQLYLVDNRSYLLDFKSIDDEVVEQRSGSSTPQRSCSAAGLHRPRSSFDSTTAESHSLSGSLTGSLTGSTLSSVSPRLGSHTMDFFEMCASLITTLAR

Turning to `CC(C)c1cc(-c2n[nH]c(=O)n2-c2ccc3c(ccn3C)c2)c(O)cc1O` [Ganetespib (STA9090)], the remaining activity at 10 µM in assay [1] amounted to 87%; in assay [2], 80.9%; in assay [3], 86.4%; in assay [4], 84.6%; in assay [5], 109%; in assay [6] (AMPK(A2/B2/G3), 10 uM), 65.8%. For the same molecule, the remaining activity at 10 µM in assay [6] (setting [12]) was 80.4%; in [6] (setting [13]), 82.1%; in assay [6] (setting [14]) it was 84.6%; in [7], 66.5%.
Regarding `CC(C)c1cc(-c2n[nH]c(=O)n2-c2ccc3c(ccn3C)c2)c(O)cc1O` [Ganetespib], the remaining activity at 10 µM came to 117% in [8], 98.6% in assay [9], 4.12% in [10] (setting [15]) and 107% in assay [11]. Further, the remaining activity at 1 µM in [10] (compound 1 uM, read-out: % Enzyme Activity (relative to DMSO controls)) was 8.59%.
On to `CCNC(=O)c1noc(-c2cc(C(C)C)c(O)cc2O)c1-c1ccc(CN2CCOCC2)cc1` [Luminespib (AUY-922)], for which the “% Enzyme Activity (relative to DMSO controls)” value is 96.77% in assay [1]; 102.48% in assay [2]; 94.57% in assay [3]; 99.10% in assay [4]; 69.42% in [5]; 103.09% in assay [6] (AMPK(A2/B2/G3), 10 uM). Moreover, the “% Enzyme Activity (relative to DMSO controls)” value in assay [6] (setting [12]) is 102.86%; in assay [6] (setting [13]), 94.15%; in assay [6] (setting [14]), 96.15%; in assay [7], 98.78%. For the same molecule, the remaining activity at 10 µM is 96.8% in assay [1]; 105% in [2]; 94.7% in assay [3]; 100% in assay [4]; 69.9% in [5]; 104% in assay [6] (AMPK(A2/B2/G3), 10 uM). Moreover, the remaining activity at 10 µM in [6] (setting [12]) amounted to 103%; in [6] (setting [13]) it was 94.2%; in assay [6] (setting [14]), 97.4%; in assay [7] it was 101%.
On to `CCNC(=O)c1noc(-c2cc(C(C)C)c(O)cc2O)c1-c1ccc(CN2CCOCC2)cc1` [Luminespib], for which the “% Enzyme Activity (relative to DMSO controls)” value in [8] worked out at 90.60%; in assay [9], 108.63%; in assay [10] (compound 10 uM) it was 84.86%; in assay [11], 94.17%. Also, the remaining activity at 10 µM in assay [8] stood at 91.5%; in [9], 110%; in [10] (setting [15]), 85.9%; in assay [11], 95.4%.
